From patent publication US10066004B2 (ARIZONA CANCER THERAPEUTICS, LLC, priority 2010, dated 2018)
No end group written: not given here.

What was measured:
[1] = system: MDA-MB-468 cells; assay: MTT viability, EJ1 in combination with pathway inhibitors or ROS scavenger; format: cell-based; conditions: MDA-MB-468, 20 μmol/l EJ1 plus inhibitor
Procedure: (a) MDA-MB-468 cells were treated with either 20 μmol/l CP (A-D) or 20 μmol/l EJ1 (E-H) for 0 minutes (A, E), 15 minutes (B, F), 60 minutes (C, G), or 16 hours (D, H). Arrows indicate membrane blebs and arrowheads indicate intracellular vacuoles. (b) BxPC3 cells were serum starved overnight, then treated with 20 μmol/l EJ1 and 50 ng/ml Texas-Red-labeled EGF, and imaged for 30 minutes with an Olympus IX71 deconvolution microscope. Panels A-F are bright field images, D′-F′ are red channel images (Texas-Red-labeled EGF). Arrowheads indicate locations of EGF accumulation on membrane protrusions. (c) Diagram depicts Ca^2+/CaM-regulated signaling pathway, and inhibitors acting at different targets are indicated. (d) MDA-MB-468 cells were pretreated with 50 μmol/l W-13 (D-F), 10 μmol/l ML-7 (G-I), or 10 μmol/l Y-27632 (J-L) in complete medium at 37° C. for 30 minutes and then treated with vehicle, 20 μmol/l CP, or 20 μmol/l EJ1 in combination with W-13, ML-7, or Y-27632 in complete medium at 37° C. for 15 minutes. Images represent the bright field images. Arrows indicate membrane blebbing. (e) MDA-MB-468 cells were untreated (UNTX) or treated with water (Vehicle), 20 μmol/l EJ1, 10 μmol/l Y-27632, or 10 μmol/l ML-7 alone or EJ1 in combination with Y-27632 or ML-7, and the viability was assessed by the MTT assay. **P<0.01 (Student's t-test). Error bars, mean±SD. (f) MDA-MB-468 cells were either in serum-free medium (SF) or stimulated with 100 ng/ml EGF (EGF) and then incubated with water (Vehicle), 20 μmol/l CP, 20 μmol/l EJ1, 2 μmol/l ionomycin, 50 μmol/l W-13, 100 μmol/l KN-93, or EJ1 in combination with ionomycin for 15 minutes. Lysates were immunoblotted with antibodies as indicated. (g) Stable, neomycin-selected NIH3T3 cell lines were created, expressing either Rac1 wild-type (Rac1-WT) or Rac1 constitutively active mutant (Rac1-Q61L). Cells were treated with water (Vehicle), 20 μmol/l CP, or 20 μmol/l EJ1, and the viability was assessed by MTT. ***P<0.001 (Student's t-test). Error bars, mean±SD.
(a) MDA-MB-468 cells were incubated in serum-free media with 200 nmol/l MitoTracker Red CMXRos and 5 μg/ml Hoechst 33342 nuclear stain, followed by either 20 μmol/l CP (A-B′) or 20 μmol/l EJ1 (C-D′), and imaged at 0 minutes (A, A′; and C, C′) or at 5 minutes (B, B′; and D, D′). (b) MDA-MB-468 cells were incubated with 1 μmol/l JC-1, followed by 20 μmol/l CP, 20 μmol/l EJ1, or 50 μmol/l CCCP. Results were calculated as the ratio of the 514/590 nm to 514/529 nm fluorescences and the ratio for CP-treated sample was set as 1. *P<0.05, Student's t-test. Error bars, mean±SD. […] Cells were then sorted by flow cytometer and analyzed by Cellquest Pro 4.0 software. The results are expressed as the percentage of DCFH fluorescence-positive cells. *P<0.05, Student's t-test. […]

[2] = system: MDA-MB-468 cells; assay: Membrane blebbing / cell morphology, bright field imaging; format: cell-based; conditions: for inhibition of EJ1-induced membrane blebbing: 50 μmol/l W-13, 10 μmol/l ML-7, 10 μmol/l Y-27632 with 20 μmol/l EJ1
Procedure: (a) MDA-MB-468 cells were treated with either 20 μmol/l CP (A-D) or 20 μmol/l EJ1 (E-H) for 0 minutes (A, E), 15 minutes (B, F), 60 minutes (C, G), or 16 hours (D, H). […] (b) BxPC3 cells were serum starved overnight, then treated with 20 μmol/l EJ1 and 50 ng/ml Texas-Red-labeled EGF, and imaged for 30 minutes with an Olympus IX71 deconvolution microscope. Panels A-F are bright field images, D′-F′ are red channel images (Texas-Red-labeled EGF). […] (c) Diagram depicts Ca^2+/CaM-regulated signaling pathway, and inhibitors acting at different targets are indicated. (d) MDA-MB-468 cells were pretreated with 50 μmol/l W-13 (D-F), 10 μmol/l ML-7 (G-I), or 10 μmol/l Y-27632 (J-L) in complete medium at 37° C. for 30 minutes and then treated with vehicle, 20 μmol/l CP, or 20 μmol/l EJ1 in combination with W-13, ML-7, or Y-27632 in complete medium at 37° C. for 15 minutes. Images represent the bright field images. […] Error bars, mean±SD. (f) MDA-MB-468 cells were either in serum-free medium (SF) or stimulated with 100 ng/ml EGF (EGF) and then incubated with water (Vehicle), 20 μmol/l CP, 20 μmol/l EJ1, 2 μmol/l ionomycin, 50 μmol/l W-13, 100 μmol/l KN-93, or EJ1 in combination with ionomycin for 15 minutes. Lysates were immunoblotted with antibodies as indicated. […] Error bars, mean±SD. (From Hart et al., 2013, Molecular Therapy 21(11):1996-2007, the disclosure of which is incorporated herein in its entirety.)
Ca^2+/CaM signaling regulates many different cellular events, such as membrane dynamics, cell survival, mitochondrial function, and motility. We began by evaluating whether EJ1 was affecting membrane dynamics by treating MDA-MB-468 cells with either CP (FIG. 8) or EJ1 (FIG. 8) and examining cell morphology. […] Ca^2+/CaM signaling regulates many different downstream pathways, such as CaMKII and MLCK. CaMKII regulates cell proliferation, whereas MLCK phosphorylates myosin light chain (MLC) and regulates actinomyosin reorganization during membrane blebbing (as depicted in FIG. 8). To investigate whether EJ1-induced membrane blebbing was through the MLCK pathway, MDA-MB-468 cells were treated with vehicle, CP, or EJ1 alone (A-C) or in combination with the CaM inhibitor W-13 or the MLC phosphorylation inhibitors ML-7 and Y-27632 (D-L).

[3] = system: MDA-MB-468 cells; conditions: for inhibitor effect on cell survival after three days of treatment: MDA-MB-468, 20 uM peptide (FIG. 1); for effect on cell viability (MTT): MDA-MB-468, 3 days of treatment (FIG. 6)
Procedure: Inhibitor peptides were evaluated on their ability to inhibit growth of triple-negative breast cancer cells MDA-MB-468 (20 uM peptide treatment). […] SEQ ID NO: 13 is […] SEQ ID NO: 14 is […] SEQ ID NO: 15 is […] SEQ ID NO: 16 is […] SEQ ID NO: 17 is […] SEQ ID NO: 18 is […] SEQ ID NO: 19 is […] SEQ ID NO: 20 is […] SEQ ID NO: 21 is […] SEQ ID NO: 22 is […] SEQ ID NO: 23 is […] SEQ ID NO: 24 is […] SEQ ID NO: 25 is […]
Peptide designations are indicated in the right column. Changes from EJ1 in EJ2-11 are denoted in the second column from the right. (d-j) Cell lines were treated daily with 20 μmol/l EJ1, 20 μmol/l CP, or vehicle (water) for 3 days unless otherwise noted, and cell viability was determined by the MTT assay. Growth rates for vehicle-treated cells were set to 100%, and CP and EJ1 rates were adjusted accordingly. *P<0.05, **P<0.01, ***P<0.001 (Student's t-test). Error bars, mean±SD. (From Hart et al., 2013, Molecular Therapy 21(11):1996-2007, the disclosure of which is incorporated herein in its entirety.)
To do this, we created cell-penetrating peptides to act as dominant-negative “decoys,” thereby inhibiting endogenous jxm interactions. Peptides specific for jxm subdomains were synthesized downstream of the protein transduction domain-4 (PTD4; FIG. 6). Next, the effect of peptide treatment on cell viability was analyzed on the breast cancer cell line MDA-MB-468 by MTT (3-[4,5-dimethylthiazol-2-yl]-2,5-diphenyl tetra-zolium bromide) analysis after 3 days of treatment.
Protein lysate preparation, immunoprecipitation, and western blotting were performed as described previously. For cross-linking, cells were first incubated according to manufacturer instructions with 3 μmol/l DMS, a membrane-permeable, noncleavable, cross-linking agent (Thermo Scientific, Waltham, Mass.). Cells were analyzed both by the MTT assay following manufacturer's instructions (Sigma) and using a U-Quant Spectrophotometer (Bio-TEK Instruments, Winooski, Vt.).

[4] = system: patient-derived glioma lines (BT145, BT147, GB16, GB7, GB42); assay: Viability of patient-derived GBM cells; format: cell-based
Description: FIG. 13A and FIG. 13B show treatment of patient-derived GBM cells with various EGFR inhibitor peptides.
EGFR is amplified or mutated in more than 40% of glioblastoma multiforme (GBM) tumors. Referring to FIG. 13-14, inhibitor peptides of the present invention were used to treat GBM cells and tumors.

Molecule: Cn1cnc(=N)c2[nH]cnc21 [3-MA]
- effect of co-treatment on EJ1-induced loss of cell viability (MTT) [1]: not able to rescue

Molecule: COc1cc2ncnc(Nc3cccc(Cl)c3)c2cc1OC [AG1478]
- membrane blebbing ([2]; EJ1 20 μmol/l, 15 minutes): No membrane blebbing was observed

Molecule: O=S(=O)(c1cccc2c(I)cccc12)N1CCCNCC1 [ML-7]
- inhibition of EJ1-induced membrane blebbing [2]: completely inhibited
- effect of co-treatment on EJ1-induced loss of cell viability (MTT) [1]: significantly reduce the effects of EJ1

Molecule: NCCCCNS(=O)(=O)c1ccc2c(Cl)cccc2c1 [W-13]
- inhibition of EJ1-induced membrane blebbing [2]: completely inhibited

Molecule: C[C@@H](N)[C@H]1CC[C@H](C(=O)Nc2ccncc2)CC1 [Y-27632]
- inhibition of EJ1-induced membrane blebbing [2]: completely inhibited
- effect of co-treatment on EJ1-induced loss of cell viability (MTT) [1]: significantly reduce the effects of EJ1

Molecule: YARAAARQARAFMRDRHIVRDRTLRDLLQERE (Artificial peptide sequence related to EGFR juxtamembrane sequence) [EJ10]
- inhibitor effect on cell survival after three days of treatment [3]: almost no inhibitor effect
- effect on cell viability (MTT) [3]: completely ablated the effects on viability

Molecule: YARAAARQARAFMRQRHIVRQRTLRQLLQERE [EJ11]
- effect on cell viability (MTT) [3]: only marginally blocked the antiproliferative effects of EJ1

Molecule: YARAAARQARAFMRRRHIVRKRTL (Artificial peptide sequence related to EGFR juxtamembrane sequence) [EJ2]
- effect on cell viability (MTT) [3]: partial reduction

Molecule: YARAAARQARAIVRKRTLRRLLQERE (Artificial peptide sequence related to EGFR juxtamembrane sequence) [EJ3]
- effect on cell viability (MTT) [3]: partial reduction

Molecule: YARAAARQARALLQERELVEPLT (Artificial peptide sequence related to EGFR juxtamembrane sequence) [EJ6]
- effect on cell viability (MTT) [3]: No antiproliferative effect

Molecule: YARAAARQARARDRHIVRDRTLRD (Artificial peptide sequence related to EGFR juxtamembrane sequence) [nlsCPv4]
- inhibitor effect on cell survival after three days of treatment [3]: almost no inhibitor effect

Molecule: YARAAARQARARRRHIVRKRTLRR (Artificial peptide sequence related to EGFR juxtamembrane sequence) [EJ4]
- effect on cell viability (MTT) [3]: No antiproliferative effect

Molecule: YARAAARQARARTLRRLLQERE (Artificial peptide sequence related to EGFR juxtamembrane sequence) [EJ5]
- effect on cell viability (MTT) [3]: partial reduction

Molecule: control peptide: control peptide compared to stapled EJ1 on patient-derived glioma lines (YARAAARQARAFMRDRHIVRDRTLRDLLQERE; Artificial peptide sequence related to EGFR juxtamembrane sequence) [reference compound]
- cell viability of patient-derived glioma lines ([4]; BT145 and BT147 (FIG. 13A)): no effect on cell viability
- cell viability of patient-derived glioma lines ([4]; GB16, GB7, GB42 and BT147, 24 hr treatment (FIG. 13B)): no effect on cell viability
